Several values for one entry are separate records, joined by “and”; a condition that tells them apart may be missing. Equal values may be shown once. Inconclusive results and toxic doses are left out.
Tested on: BDF1 mice, B16 melanoma ip, median survival T/C
Assay: NCI In Vivo Anticancer Drug Screen. Data for tumor model B16 Melanoma (intraperitoneal) in B6D2F1 (BDF1) mice
Settings: endpoint: median survival time, higher = longer survival
Method in brief: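 The ratio T/C compares compound-treated mice with vehicle-treated controls, using survival or tumor size as the endpoint in a transplantable tumor model.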

[1] = dose: 25.0 mg/kg/injection, schedule: Q01DX009 (ip), vehicle: Klucel (hydroxypropylcellulose) (HPC)
[2] = dose: 50.0 mg/kg/injection, schedule: Q01DX009 (ip), vehicle: Klucel (hydroxypropylcellulose) (HPC)
[3] = dose: 100.0 mg/kg/injection, schedule: Q01DX009 (ip), vehicle: Klucel (hydroxypropylcellulose) (HPC)
[4] = dose: 200.0 mg/kg/injection, schedule: Q01DX009 (ip), vehicle: Klucel (hydroxypropylcellulose) (HPC)
[5] = dose: 12.5 mg/kg/injection, schedule: Q01DX009 (ip), vehicle: Klucel (hydroxypropylcellulose) (HPC)
[6] = dose: 12.5 mg/kg/injection, schedule: Q01DX009 (ip), vehicle: saline with Tween-80
[7] = dose: 25.0 mg/kg/injection, schedule: Q01DX009 (ip), vehicle: saline with Tween-80

For `Cc1ccc(S(=O)(=O)NC(=O)C2C(=O)CC3(CCCCC3)CC2=O)cc1`, the T/C [1] was 97 % of control, the T/C [2] was 100 % of control and 111 % of control and the T/C [3] was 96 % of control and 113 % of control. The T/C [4] was 94 % of control.

For `O=C1Cc2cccc3c2C(C1)CN3C(=O)c1ccccc1` (centres undefined), the T/C (dose: 100.0 mg/kg/injection, schedule: Q04DX003 (ip), vehicle: Klucel (hydroxypropylcellulose) (HPC)) was 101 % of control, the T/C (dose: 200.0 mg/kg/injection, schedule: Q04DX003 (ip), vehicle: Klucel (hydroxypropylcellulose) (HPC)) was 106 % of control and the T/C (dose: 400.0 mg/kg/injection, schedule: Q04DX003 (ip), vehicle: Klucel (hydroxypropylcellulose) (HPC)) was 110 % of control.

With `Cc1cc2c(c(O)c1CN1CCOCC1)C1=C(CCCC1)C(C)(C)O2` the T/C (dose: 32.0 mg/kg/injection, schedule: Q01DX009 (ip), vehicle: Klucel (hydroxypropylcellulose) (HPC)) was 108 % of control, the T/C (dose: 64.0 mg/kg/injection, schedule: Q01DX009 (ip), vehicle: Klucel (hydroxypropylcellulose) (HPC)) was 98 % of control and the T/C (dose: 128.0 mg/kg/injection, schedule: Q01DX009 (ip), vehicle: Klucel (hydroxypropylcellulose) (HPC)) was 93 % of control. The T/C (dose: 256.0 mg/kg/injection, schedule: Q01DX009 (ip), vehicle: Klucel (hydroxypropylcellulose) (HPC)) was 103 % of control.

For `CC(=O)CC(=O)Nc1cccc([N+](=O)[O-])c1`, the T/C [1] was 100 % of control and the T/C [3] was 94 % of control.

In the case of `CC(=O)CC(C)=O.CC(=O)CC(C)=O.CC(=O)CC(C)=O.[V]`, the T/C (dose: 3.13 mg/kg/injection, schedule: Q01DX009 (ip), vehicle: saline) is reported as 88 % of control and the T/C (dose: 6.25 mg/kg/injection, schedule: Q01DX009 (ip), vehicle: saline) is reported as 89 % of control.

For `Cn1cnc([N+](=O)[O-])c1[Se]c1nc(N)nc2nc[nH]c12`, the T/C (dose: 3.12 mg/kg/injection, schedule: Q01DX009 (ip), vehicle: water) was 109 % of control, the T/C (dose: 6.25 mg/kg/injection, schedule: Q01DX009 (ip), vehicle: water) was 117 % of control and the T/C (dose: 11.0 mg/kg/injection, schedule: Q01DX009 (ip), vehicle: other) was 116 % of control. The T/C (dose: 12.5 mg/kg/injection, schedule: Q01DX009 (ip), vehicle: water) was 150 % of control, the T/C (dose: 16.5 mg/kg/injection, schedule: Q01DX009 (ip), vehicle: other) was 117 % of control and the T/C (dose: 25.0 mg/kg/injection, schedule: Q01DX009 (ip), vehicle: water) was 153 % of control and 158 % of control.

For `CCOC(=O)c1c(N)sc2c1CCN(C)C2`, the T/C (dose: 6.25 mg/kg/injection, schedule: Q04DX003 (ip), vehicle: Klucel (hydroxypropylcellulose) (HPC)) was 95 % of control, the T/C [5] was 100 % of control and the T/C (dose: 12.5 mg/kg/injection, schedule: Q04DX003 (ip), vehicle: Klucel (hydroxypropylcellulose) (HPC)) was 102 % of control. For the same molecule, the T/C [1] was 102 % of control, the T/C (dose: 25.0 mg/kg/injection, schedule: Q04DX003 (ip), vehicle: Klucel (hydroxypropylcellulose) (HPC)) was 89 % of control and the T/C (dose: 35.0 mg/kg/injection, schedule: Q04DX003 (ip), vehicle: Klucel (hydroxypropylcellulose) (HPC)) was 105 % of control. For the same molecule, the T/C (dose: 55.0 mg/kg/injection, schedule: Q04DX003 (ip), vehicle: Klucel (hydroxypropylcellulose) (HPC)) was 121 % of control.

In the case of `Cc1ccc(C)c(CCN)c1`, the T/C [6] is reported as 104 % of control and the T/C [7] is reported as 97 % of control.

With `CCC/C=C/C=C/C1CC(O)C(O)C(=O)C1CO` (centres undefined) the T/C [6] was 102 % of control, the T/C [7] was 104 % of control and the T/C (dose: 50.0 mg/kg/injection, schedule: Q01DX009 (ip), vehicle: saline with Tween-80) was 90 % of control. For the same molecule, the T/C (dose: 100.0 mg/kg/injection, schedule: Q01DX009 (ip), vehicle: saline with Tween-80) was 95 % of control.

`Nc1ccc(F)cc1[N+](=O)[O-]` was tested, and the T/C (dose: 75.0 mg/kg/injection, schedule: Q01DX009 (ip), vehicle: Klucel (hydroxypropylcellulose) (HPC)) was 122 % of control, the T/C (dose: 150.0 mg/kg/injection, schedule: Q01DX009 (ip), vehicle: Klucel (hydroxypropylcellulose) (HPC)) was 105 % of control and the T/C (dose: 300.0 mg/kg/injection, schedule: Q01DX009 (ip), vehicle: Klucel (hydroxypropylcellulose) (HPC)) was 102 % of control.

For `CCCCCCCCCCCC(O)CCCC` (centres undefined), the T/C (dose: 6.25 mg/kg/injection, schedule: Q01DX009 (ip), vehicle: Klucel (hydroxypropylcellulose) (HPC)) was 99 % of control and the T/C [5] was 104 % of control.

For `CC(=O)O[C@]1(C(C)=O)CC[C@H]2[C@@H]3C[C@H](C)C4=CC(=O)CC[C@]4(C)[C@H]3CC[C@@]21C`, the T/C [5] was 120 % of control, the T/C [1] was 117 % of control and the T/C [2] was 100 % of control. For the same molecule, the T/C [3] was 96 % of control, the T/C [4] was 89 % of control and the T/C (dose: 400.0 mg/kg/injection, schedule: Q01DX009 (ip), vehicle: Klucel (hydroxypropylcellulose) (HPC)) was 96 % of control. For the same molecule, the T/C (dose: 800.0 mg/kg/injection, schedule: Q01DX009 (ip), vehicle: Klucel (hydroxypropylcellulose) (HPC)) was 89 % of control.

`C[NH-].C[NH-].C[NH-].C[NH-].[Cl][Rh][Cl]` was tested, and the T/C [1] was 114 % of control, the T/C [2] was 120 % of control and the T/C [3] was 105 % of control.
